The text below walks through data of patent US10363263B2, “Anti-aging compositions and methods for using same” (Prescient Pharma LLC, priority 2015, dated 2019).

SMILES strings stand for the structures.

The test system of assay [1] is normal human colon fibroblast cell line CCD 841 CoN (CRL-1790, ATCC). As to the kind of experiment: Senescence beta-galactosidase staining of aged normal human colon fibroblasts (Examples 1 and 2). It is filed as cell-based. The following applies: 48 hours; for effect on beta-galactosidase staining in comparison with non-treated controls: monotherapy, 0.15 μM lithium carbonate or 0.25 mM glycyrrhizic acid; for visible positive beta-galactosidase staining (FIGS. 1-4): visual, light microscope 100×, 0.15 μM lithium carbonate and/or 0.25 mM glycyrrhizic acid. As to the method: Aging-associated beta-galactosidase is widely used as a biomarker of senescence. Here we investigated senescence-associated-beta-galactosidase activity of human colon fibroblast cells by visual assessment.
In this Example, the effect of treatment with lithium and glycyrrhizic acid separately, and as a fixed combination, was evaluated on normal human colon fibroblast cell line CCD 841 CoN (CRL-1790, ATCC).
Group 4 (flasks 10-12, control), the medium was changed to fresh compete EMEM medium without drugs as controls.
FIGS. 1-4 show pictures of the staining results for each of the groups, respectively.
Digital pictures showing the staining results for each of the 12 flasks were then independently examined and scored for percentage of area of green (positive) staining based on pixels, with and without background subtraction.
Higher values reflect more intensive green staining which corresponds to more aged cells.
Group#9 contained complete EMEM medium with glycyrrhizic acid 0.25 mM.
Group#10 contained complete EMEM medium only and was used as a control.
FIGS. 6-15 show pictures of the staining results for each of the groups, respectively.

For assay [2], the system named is wild-type N2 Bristol strain of C. elegans. The experiment in a line: C. elegans longevity study (Example 4). It is filed as in vivo. The settings on record: for longevity effect: monotherapy; for Restricted mean Days (survival): control 15.53. As to the method:
In this fourth Example, the effect of treatment with lithium and Glycyrrhizic acid separately, and as a fixed combination, was further evaluated on the wild-type N2 Bristol strain of C. elegans. Worm stocks were maintained on nematode growth medium (NGM) dishes containing 10 μg/mL cholesterol (Cat. No. C8667; Sigma-Aldrich, Saint Louis, Mo., USA). Dishes were seeded with OP50 Escherichia coli as a food source. Twelve polystyrene petri dishes (35 mm diameter) were prepared by filling with NGM agar containing […] cholesterol, and 25 μM 5-Fluoro-2′-deoxyuridine to suppress reproduction (FUDR; Cat. No. F0503; Sigma-Aldrich, Saint Louis, Mo., USA). The dishes were seeded with OP50 Escherichia coli as a food source. Duplicate dishes were used for each group. The treatment drug was dissolved in deionized water, and added to the dishes for the groups as explained below: […] Group#5: Glycyrrhizic acid in concentration of 0.25 mM Group#6: untreated (control) NGM-agar treatment plates containing cholesterol (10 μg/mL) and 25 μM 5-Fluoro-2′-deoxyuridine (FUDR; Cat. No. F0503; Sigma-Aldrich, Saint Louis, Mo., USA) to suppress reproduction. […] The survival data for the various groups are also depicted in FIG. 17.

[3] abbreviates: lithium carbonate 15 or 0.15 μM as in the label, Ga = glycyrrhizic acid 0.25 mM.
[4] abbreviates: lithium carbonate 15 or 0.15 μM as in the label, Ga = glycyrrhizic acid 0.25 mM, listed as Li0.15 uM.
Setting [5] is: lithium carbonate 15 or 0.15 μM as in the label, Ga = glycyrrhizic acid 0.25 mM, listed as Li15 uM.

As to `CC1(C)[C@@H](O[C@H]2O[C@H](C(=O)O)[C@@H](O)[C@H](O)[C@H]2O[C@@H]2O[C@H](C(=O)O)[C@@H](O)[C@H](O)[C@H]2O)CC[C@]2(C)[C@H]3C(=O)C=C4[C@@H]5C[C@@](C)(C(=O)O)CC[C@]5(C)CC[C@@]4(C)[C@]3(C)CC[C@@H]12` [glycyrrhizic acid, (3β,20β)-20-carboxy-11-oxo-30-norolean-12-en-3-yl 2-O-β-D-glucopyranuronosyl-α-D-glucopyranosiduronic acid], in assay [1], the “effect on beta-galactosidase staining in comparison with non-treated controls” value is listed as “did not appear to have significant effect” and the “visible positive beta-galactosidase staining (FIGS. 1-4)” value is listed as “stained positively”. Further, the “Age in days at 100% mortality” value in assay [2] (setting [3]) turned out to be 20 days. Besides, in assay [2], the longevity effect entry is given as “not observed”.
As to `O=C([O-])[O-].[Li+].[Li+]` [lithium carbonate], in assay [1], the “effect on beta-galactosidase staining in comparison with non-treated controls” value is given as “did not appear to have significant effect” and the “visible positive beta-galactosidase staining (FIGS. 1-4)” value is reported as “stained positively”. Moreover, in assay [2] (setting [3]), the “Age in days at 50% mortality” value is recorded as 15 days, the “Age in days at 75% mortality” value is given as 16 days, the “Age in days at 90% mortality” value was determined as 18 days and the “Age in days at 100% mortality” value was found to be 19 days. In addition, in assay [2] (setting [4]), the “Restricted mean Days (survival)” value turned out to be 14.88 days and the “Age in days at 25% mortality” value stood at 13 days. In assay [2] (setting [5]), the “Restricted mean Days (survival)” value was determined as 14.56 days and the “Age in days at 25% mortality” value was found to be 14 days. For the same compound, the longevity effect entry in assay [2] is “not observed”.
